Measurements: the CheMixHub ionic liquid set
± gives the uncertainty stated by the source.

Test: xn = mol fraction of the nth substance listed
Conditions: 101 kPa

CC[N+](C)(CC)CCOC.F[B-](F)(F)F + O=C1CCCO1
Conditions | electrical conductivity [S/m] | viscosity [mPa·s]
288.15 K, x1 = 0.1006 | 0.841 ± 0.01 | 6.82 ± 0.15
288.15 K, x1 = 0.2004 | 0.851 ± 0.01 | 9.23 ± 0.2
288.15 K, x1 = 0.3005 | 0.691 ± 0.01 | 16.02 ± 0.34
288.15 K, x1 = 0.4002 | 0.57 ± 0.01 | 23.81 ± 0.51
288.15 K, x1 = 0.4999 | 0.424 ± 0.01 | 63.2 ± 1.4
288.15 K, x1 = 0.6001 | 0.29 ± 0.01 | 103.1 ± 3.1
288.15 K, x1 = 0.6998 | 0.215 ± 0.01 | 157.6 ± 6.4
288.15 K, x1 = 0.7999 | 0.164 ± 0.01 | 213 ± 10
293.15 K, x1 = 0.1006 | 0.951 ± 0.01 | 5.32 ± 0.11
293.15 K, x1 = 0.2004 | 0.976 ± 0.01 | 7.92 ± 0.17
293.15 K, x1 = 0.3005 | 0.817 ± 0.01 | 13.79 ± 0.29
293.15 K, x1 = 0.4002 | 0.688 ± 0.01 | 20.66 ± 0.44
293.15 K, x1 = 0.4999 | 0.522 ± 0.01 | 49.1 ± 1
293.15 K, x1 = 0.6001 | 0.377 ± 0.01 | 78.1 ± 1.9
293.15 K, x1 = 0.6998 | 0.298 ± 0.01 | 116.8 ± 3.8
293.15 K, x1 = 0.7999 | 0.227 ± 0.01 | 155.5 ± 6.3
298.15 K, x1 = 0.1006 | 1.06 ± 0.011 | 4.185 ± 0.089
298.15 K, x1 = 0.2004 | 1.114 ± 0.011 | 6.94 ± 0.15
298.15 K, x1 = 0.3005 | 0.956 ± 0.01 | 11.91 ± 0.25
298.15 K, x1 = 0.4002 | 0.811 ± 0.01 | 17.89 ± 0.38
298.15 K, x1 = 0.4999 | 0.641 ± 0.01 | 38.49 ± 0.82
298.15 K, x1 = 0.6001 | 0.472 ± 0.01 | 59.7 ± 1.2
298.15 K, x1 = 0.6998 | 0.389 ± 0.01 | 86.9 ± 2.3
303.15 K, x1 = 0.1006 | 1.18 ± 0.012 | 3.324 ± 0.071
303.15 K, x1 = 0.2004 | 1.26 ± 0.013 | 6.02 ± 0.13
303.15 K, x1 = 0.3005 | 1.113 ± 0.011 | 10.17 ± 0.22
303.15 K, x1 = 0.4002 | 0.971 ± 0.01 | 15.32 ± 0.33
303.15 K, x1 = 0.4999 | 0.783 ± 0.01 | 30.01 ± 0.64
303.15 K, x1 = 0.6001 | 0.596 ± 0.01 | 45.3 ± 0.97
303.15 K, x1 = 0.6998 | 0.503 ± 0.01 | 64.6 ± 1.4
308.15 K, x1 = 0.1006 | 1.28 ± 0.013 | 2.671 ± 0.057
308.15 K, x1 = 0.2004 | 1.433 ± 0.014 | 5.26 ± 0.11
308.15 K, x1 = 0.3005 | 1.28 ± 0.013 | 8.82 ± 0.19
308.15 K, x1 = 0.4002 | 1.126 ± 0.011 | 13.39 ± 0.29
308.15 K, x1 = 0.4999 | 0.927 ± 0.01 | 24.01 ± 0.51
308.15 K, x1 = 0.6001 | 0.725 ± 0.01 | 35.23 ± 0.75
308.15 K, x1 = 0.6998 | 0.615 ± 0.01 | 48.3 ± 1
313.15 K, x1 = 0.1006 | 1.416 ± 0.014 | 2.197 ± 0.047
313.15 K, x1 = 0.2004 | 1.606 ± 0.016 | 4.633 ± 0.099
313.15 K, x1 = 0.3005 | 1.47 ± 0.015 | 7.63 ± 0.16
313.15 K, x1 = 0.4002 | 1.29 ± 0.013 | 11.62 ± 0.25
313.15 K, x1 = 0.4999 | 1.09 ± 0.011 | 19.44 ± 0.41
313.15 K, x1 = 0.6001 | 0.868 ± 0.01 | 27.85 ± 0.59
313.15 K, x1 = 0.6998 | 0.745 ± 0.01 | 36.75 ± 0.78
318.15 K, x1 = 0.1006 | 1.55 ± 0.016 | 1.855 ± 0.04
318.15 K, x1 = 0.2004 | 1.78 ± 0.018 | 4.085 ± 0.087
318.15 K, x1 = 0.3005 | 1.65 ± 0.017 | 6.55 ± 0.14
318.15 K, x1 = 0.4002 | 1.48 ± 0.015 | 10.01 ± 0.21
318.15 K, x1 = 0.4999 | 1.27 ± 0.013 | 15.67 ± 0.33
318.15 K, x1 = 0.6001 | 1.04 ± 0.01 | 21.94 ± 0.47
318.15 K, x1 = 0.6998 | 0.878 ± 0.01 | 27.84 ± 0.59
323.15 K, x1 = 0.1006 | 1.69 ± 0.017 | 1.577 ± 0.034
323.15 K, x1 = 0.2004 | 1.97 ± 0.02 | 3.603 ± 0.077
323.15 K, x1 = 0.3005 | 1.839 ± 0.018 | 5.68 ± 0.12
323.15 K, x1 = 0.4002 | 1.68 ± 0.017 | 8.77 ± 0.19
323.15 K, x1 = 0.4999 | 1.46 ± 0.015 | 12.42 ± 0.26
323.15 K, x1 = 0.6001 | 1.22 ± 0.012 | 16.68 ± 0.36
323.15 K, x1 = 0.6998 | 1.02 ± 0.01 | 20.94 ± 0.45
328.15 K, x1 = 0.1006 | 1.827 ± 0.018 | 1.35 ± 0.029
328.15 K, x1 = 0.2004 | 2.15 ± 0.022 | 3.183 ± 0.068
328.15 K, x1 = 0.3005 | 2.05 ± 0.021 | 4.95 ± 0.11
328.15 K, x1 = 0.4002 | 1.89 ± 0.019 | 7.71 ± 0.16
328.15 K, x1 = 0.4999 | 1.66 ± 0.017 | 10.11 ± 0.22
328.15 K, x1 = 0.6001 | 1.41 ± 0.014 | 13.1 ± 0.28
328.15 K, x1 = 0.6998 | 1.21 ± 0.012 | 15.79 ± 0.34
333.15 K, x1 = 0.1006 | 1.96 ± 0.02 | 1.142 ± 0.025
333.15 K, x1 = 0.2004 | 2.34 ± 0.023 | 2.827 ± 0.06
333.15 K, x1 = 0.3005 | 2.25 ± 0.023 | 4.282 ± 0.091
333.15 K, x1 = 0.4002 | 2.1 ± 0.021 | 6.74 ± 0.14
333.15 K, x1 = 0.4999 | 1.86 ± 0.019 | 8.58 ± 0.18
333.15 K, x1 = 0.6001 | 1.63 ± 0.016 | 11.02 ± 0.23
333.15 K, x1 = 0.6998 | 1.404 ± 0.014 | 12.64 ± 0.27
338.15 K, x1 = 0.1006 | 2.08 ± 0.021 | 0.992 ± 0.021
338.15 K, x1 = 0.2004 | 2.53 ± 0.025 | 2.498 ± 0.053
338.15 K, x1 = 0.3005 | 2.47 ± 0.025 | 3.693 ± 0.079
338.15 K, x1 = 0.4002 | 2.32 ± 0.023 | 5.89 ± 0.13
338.15 K, x1 = 0.4999 | 2.09 ± 0.021 | 6.92 ± 0.15
338.15 K, x1 = 0.6001 | 1.86 ± 0.019 | 8.55 ± 0.18
338.15 K, x1 = 0.6998 | 1.607 ± 0.016 | 9.17 ± 0.19
343.15 K, x1 = 0.1006 | 2.21 ± 0.022 | 0.876 ± 0.019
343.15 K, x1 = 0.2004 | 2.73 ± 0.027 | 2.235 ± 0.048
343.15 K, x1 = 0.3005 | 2.68 ± 0.027 | 3.194 ± 0.068
343.15 K, x1 = 0.4002 | 2.54 ± 0.025 | 5.15 ± 0.11
343.15 K, x1 = 0.4999 | 2.29 ± 0.023 | 5.85 ± 0.13
343.15 K, x1 = 0.6001 | 2.1 ± 0.021 | 7.16 ± 0.15
343.15 K, x1 = 0.6998 | 1.85 ± 0.019 | 6.87 ± 0.15
348.15 K, x1 = 0.1006 | 2.35 ± 0.024 | 0.795 ± 0.017
348.15 K, x1 = 0.2004 | 2.92 ± 0.029 | 2.001 ± 0.043
348.15 K, x1 = 0.3005 | 2.91 ± 0.029 | 2.754 ± 0.059
348.15 K, x1 = 0.4002 | 2.79 ± 0.028 | 4.507 ± 0.096
348.15 K, x1 = 0.4999 | 2.56 ± 0.026 | 4.69 ± 0.1
348.15 K, x1 = 0.6001 | 2.35 ± 0.024 | 5.48 ± 0.12
348.15 K, x1 = 0.6998 | 2.08 ± 0.021 | 5.52 ± 0.12
353.15 K, x1 = 0.1006 | 2.48 ± 0.025 | 0.716 ± 0.015
353.15 K, x1 = 0.2004 | 3.14 ± 0.031 | 1.753 ± 0.037
353.15 K, x1 = 0.3005 | 3.11 ± 0.031 | 2.391 ± 0.051
353.15 K, x1 = 0.4002 | 3.04 ± 0.03 | 4.028 ± 0.086
353.15 K, x1 = 0.4999 | 2.82 ± 0.028 | 3.864 ± 0.082
353.15 K, x1 = 0.6001 | 2.62 ± 0.026 | 4.301 ± 0.092
353.15 K, x1 = 0.6998 | 2.36 ± 0.024 | 3.983 ± 0.085

CCCC[P+](CC)(CCCC)CCCC.[Br-] + OCCOCCO
x1 = 0.333
Conditions | viscosity [mPa·s]
333.15 K | 23.07 ± 0.24
353.15 K | 12.73 ± 0.13
